Among the data in patent publication US20240246931A1, “COMPOUNDS AS PD1/PD-L1 INHIBITORS AND METHODS THEREOF” (JUBILANT PRODEL LLC, priority 2021, published 2024) are IC50 values, retold here.

For this test, the target named is T1, PD-1/PD-L1 interaction (Homo sapiens, UniProt Q9NZQ7).
T1 construct: purchased CisBio 63ADK000CPAPEG
The test is described as follows: PD-1/PD-L1 HTRF binding assay (CisBio kit). The conditions noted are these: HTRF PD1/PD-L1 inhibition assay. As for the experimental part: PD-L1 Enzyme Assay: Homogenous Time-Resolved Fluorescence (HTRF) Binding Assay
All binding studies were performed using PD-1/PD-L1 Binding Assay Kit from CisBio (Catalog #63ADK000CPAPEG), according to the manufacturer's protocol. The interaction between Tag1-PD-1 and […] was detected by anti-Tag1-Eu^3+ (HTRF donor) and anti-Tag2-XL665 (HTRF acceptor). When the donor and acceptor antibodies were brought to close proximity due to PD-1 and PD-L1 binding, excitation of the donor antibody triggered fluorescent resonance energy transfer (FRET) towards the acceptor antibody, which in turn emitted specifically at 665 nm. This specific signal is positively proportional to PD-1/PD-L1 interaction. The compounds blocking PD-1/PD-L1 interaction will cause a reduction in HTRF signal. The necessary reagents were mixed in the following order: 2 μL compounds (or diluents buffer), 4 μL PD-L1 protein, 4 μL PD-1 protein. After an incubation of 15 minutes, 5 μL of anti-Tag1-Eu^3+ and 5 μL of anti-Tag2-XL665 were added. The plate was sealed and incubated at room temperature for 1 h. The fluorescence emission was read at two different wavelengths (665 nm and 620 nm) on a BMG PheraStar® multi-plate reader.
Results were calculated from the 665 nm and 620 nm fluorescence signal and expressed in HTRF ratio=(665 nm/620 nm)×10^4.
Compounds having IC50<100 nM are designated as “A”; 100-500 nM are designated as “B”; and >500 nM are designated as “C” respectively.

The structures appear in SMILES notation. pIC50: −log10 of the molar value. Counter-ions that a name gives are not always drawn.

T1 sequence (Q9NZQ7 19-238 limits assumed): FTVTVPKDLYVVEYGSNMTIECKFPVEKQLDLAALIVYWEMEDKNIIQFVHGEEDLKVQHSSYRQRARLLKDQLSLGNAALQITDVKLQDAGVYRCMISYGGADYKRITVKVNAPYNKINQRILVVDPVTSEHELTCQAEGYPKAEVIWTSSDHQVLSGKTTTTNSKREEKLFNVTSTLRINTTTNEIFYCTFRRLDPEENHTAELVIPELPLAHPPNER

One may read the pIC50 as the IC50 on a negative log10 scale, so that one unit is a factor of ten. For the compound `Cc1c(COc2cc(OCc3cncc(C#N)c3)c(CN3CC[C@H](CO)C3)c3c2CCC3)cccc1-c1ccccc1` [Example 18, (S)-5-(((4-((3-(hydroxymethyl)pyrrolidin-1-yl)methyl)-7-((2-methyl-[1,1′-biphenyl]-3-yl)methoxy)-2,3-dihydro-1H-inden-5-yl)oxy)methyl)nicotinonitrile], the pIC50 is more than 7.00.
The figure for `Cc1c(COc2cc(OCc3cncc(C#N)c3)c(CN3CCC[C@@H]3CO)c3c2CCC3)cccc1-c1ccccc1` [Example 19, (R)-5-(((4-((2-(hydroxymethyl)pyrrolidin-1-yl)methyl)-7-((2-methyl-[1,1′-biphenyl]-3-yl)methoxy)-2,3-dihydro-1H-inden-5-yl)oxy)methyl)nicotinonitrile] is more than 7.00; for `COc1ccc(-c2cccc(COc3cc(OCc4cncc(C#N)c4)c(CN4CCC4CO)c4c3CCC4)c2C)c(C)c1` (centres unmarked) [Example 58, 5-(((4-((2-(hydroxymethyl)azetidin-1-yl)methyl)-7-((4′-methoxy-2,2′-dimethyl-[1,1′-biphenyl]-3-yl)methoxy)-2,3-dihydro-1H-inden-5-yl)oxy)methyl)nicotinonitrile] it is less than 6.30; for `Cc1c(COc2cc(OCc3cncc(C#N)c3)c(CN3CCC3CO)c3c2CCC3)cccc1-c1cccc2cccnc12` (centres unmarked) [Example 69, 5-(((4-((2-(hydroxymethyl)azetidin-1-yl)methyl)-7-((2-methyl-3-(quinolin-8-yl)benzyl)oxy)-2,3-dihydro-1H-inden-5-yl)oxy)methyl)nicotinonitrile] it is less than 6.30.
For the compound `Cc1c(COc2cc(OCc3cncc(C#N)c3)c(CN3CCC[C@H]3CO)c3c2CCC3)cccc1-c1ccc(F)cc1` [Example 48, (S)-5-(((7-((4′-fluoro-2-methyl-[1,1′-biphenyl]-3-yl)methoxy)-4-((2-(hydroxymethyl)pyrrolidin-1-yl)methyl)-2,3-dihydro-1H-inden-5-yl)oxy)methyl)nicotinonitrile], the negative-log IC50 (pIC50) is 6.30 to 7.00.
Consider `Cc1c(COc2cc(OCc3cncc(C#N)c3)c(CN3CCC3CO)c3c2CCC3)cccc1-c1ccc(C(C)(C)C)cc1` (centres unmarked) [Example 75, 5-(((7-((4′-(tert-butyl)-2-methyl-[1,1′-biphenyl]-3-yl)methoxy)-4-((2-(hydroxymethyl)azetidin-1-yl)methyl)-2,3-dihydro-1H-inden-5-yl)oxy)methyl)nicotinonitrile], for which the pIC50 was less than 6.30.
The figure for `Cc1c(COc2cc(OCc3cncc(C#N)c3)c(CN3CCC3CO)c3c2CCC3)cccc1-c1cccnc1` (centres unmarked) [Example 71, 5-(((4-((2-(hydroxymethyl)azetidin-1-yl)methyl)-7-((2-methyl-3-(pyridin-3-yl)benzyl)oxy)-2,3-dihydro-1H-inden-5-yl)oxy)methyl)nicotinonitrile] is 6.30 to 7.00.
In turn, `Cc1c(COc2cc(OCc3cncc(C#N)c3)c(CN3CCC3CO)c3c2CCC3)cccc1-c1ccncc1` (centres unmarked) [Example 70, 5-(((4-((2-(hydroxymethyl)azetidin-1-yl)methyl)-7-((2-methyl-3-(pyridin-4-yl)benzyl)oxy)-2,3-dihydro-1H-inden-5-yl)oxy)methyl)nicotinonitrile] had a pIC50 of less than 6.30.
The figure for `Cc1c(COc2cc(OCCCCF)c(CN3CC[C@H]3CO)c3c2CCC3)cccc1-c1ccccc1` [Example 33, (S)-(1-((5-(4-fluorobutoxy)-7-((2-methyl-[1,1′-biphenyl]-3-yl)methoxy)-2,3-dihydro-1H-inden-4-yl)methyl)azetidin-2-yl)methanol] is 6.30 to 7.00.
The compound `Cc1c(COc2cc(OCc3cncc(C#N)c3)c(CN3CCCC[C@H]3CO)c3c2CCC3)cccc1-c1ccc(F)cc1` [Example 46, (S)-5-(((7-((4′-fluoro-2-methyl-[1,1′-biphenyl]-3-yl)methoxy)-4-((2-(hydroxymethyl)piperidin-1-yl)methyl)-2,3-dihydro-1H-inden-5-yl)oxy)methyl)nicotinonitrile] gave a negative-log IC50 (pIC50) of 6.30 to 7.00.
Regarding `CNC(=O)NCC1CCCN1Cc1c(OCc2cncc(C#N)c2)cc(OCc2cccc(-c3ccccc3)c2C)c2c1CCC2` (centres unmarked) [Example 80, 1-((1-((5-((5-cyanopyridin-3-yl)methoxy)-7-((2-methyl-[1,1′-biphenyl]-3-yl)methoxy)-2,3-dihydro-1H-inden-4-yl)methyl)pyrrolidin-2-yl)methyl)-3-methylurea formate], the negative logarithm of the IC50 (pIC50) is more than 7.00.
`Cc1c(COc2cc(OCc3cncc(C#N)c3)c(CN3CCC3CO)c3c2CCC3)cccc1-c1cn[nH]c1` (centres unmarked) [Example 57, 5-(((4-((2-(hydroxymethyl)azetidin-1-yl)methyl)-7-((2-methyl-3-(1H-pyrazol-4-yl)benzyl)oxy)-2,3-dihydro-1H-inden-5-yl)oxy)methyl)nicotinonitrile] had a pIC50 of less than 6.30.
As to `Cc1c(COc2cc(OCc3cncc(C#N)c3)c(CN3CCCC3CN)c3c2CCC3)cccc1-c1ccccc1` (centres unmarked) [Example 53, 5-(((4-((2-(aminomethyl)pyrrolidin-1-yl)methyl)-7-((2-methyl-[1,1′-biphenyl]-3-yl)methoxy)-2,3-dihydro-1H-inden-5-yl)oxy)methyl)nicotinonitrile], the pIC50 was more than 7.00.
The compound `Cc1c(COc2cc(OCc3cncc(C#N)c3)c(CN3CCC3CO)c3c2CCC3)cccc1-c1ccc(N2CCOCC2)nc1` (centres unmarked) [Example 61, 5-(((4-((2-(hydroxymethyl)azetidin-1-yl)methyl)-7-((2-methyl-3-(6-morpholinopyridin-3-yl)benzyl)oxy)-2,3-dihydro-1H-inden-5-yl)oxy)methyl)nicotinonitrile] had a pIC50 of less than 6.30.
Compound `Cc1c(COc2cc(OCc3cncc(C#N)c3)c(CN3CC(F)(F)CCC3CO)c3c2CCC3)cccc1-c1ccccc1` (centres unmarked) [Example 12, 5-(((4-((5,5-difluoro-2-(hydroxymethyl)piperidin-1-yl)methyl)-7-((2-methyl-[1,1′-biphenyl]-3-yl)methoxy)-2,3-dihydro-1H-inden-5-yl)oxy)methyl)nicotinonitrile] had a pIC50 of 6.30 to 7.00.
Compound `COc1cccc(-c2cccc(COc3cc(OCc4cncc(C#N)c4)c(CN4CCC4CO)c4c3CCC4)c2C)c1` (centres unmarked) [Example 65, 5-(((4-((2-(hydroxymethyl)azetidin-1-yl)methyl)-7-((3′-methoxy-2-methyl-[1,1′-biphenyl]-3-yl)methoxy)-2,3-dihydro-1H-inden-5-yl)oxy)methyl)nicotinonitrile] had a pIC50 of more than 7.00.
`Cc1c(COc2cc(OCc3cncc(C#N)c3)c(CN3CCC3CO)c3c2CCC3)cccc1-c1cnc2[nH]ccc2c1` (centres unmarked) [Example 74, 5-(((4-((2-(hydroxymethyl)azetidin-1-yl)methyl)-7-((2-methyl-3-(1H-pyrrolo[2,3-b]pyridin-5-yl)benzyl)oxy)-2,3-dihydro-1H-inden-5-yl)oxy)methyl)nicotinonitrile 2,2,2-trifluoroacetate] showed a negative-log IC50 (pIC50) of less than 6.30.
The figure for `Cc1c(COc2cc(OCc3cncc(C#N)c3)c(CN3CCC[C@H](CO)C3)c3c2CCC3)cccc1-c1ccccc1` [Example 16, (S)-5-(((4-((3-(hydroxymethyl)piperidin-1-yl)methyl)-7-((2-methyl-[1,1′-biphenyl]-3-yl)methoxy)-2,3-dihydro-1H-inden-5-yl)oxy)methyl)nicotinonitrile] is more than 7.00; for `Cc1c(COc2cc(OCc3cncc(C#N)c3)c(CN3CCN(C)CC3CO)c3c2CCC3)cccc1-c1ccccc1` (centres unmarked) [Example 13, 5-(((4-((2-(hydroxymethyl)-4-methylpiperazin-1-yl)methyl)-7-((2-methyl-[1,1′-biphenyl]-3-yl)methoxy)-2,3-dihydro-1H-inden-5-yl)oxy)methyl)nicotinonitrile] it is more than 7.00; for `Cc1c(COc2cc(OCc3cncc(C#N)c3)c(CN3CCC3CO)c3c2CCC3)cccc1-c1ccc(F)cc1` (centres unmarked) [Example 76, 5-(((7-((4′-fluoro-2-methyl-[1,1′-biphenyl]-3-yl)methoxy)-4-((2-(hydroxymethyl)azetidin-1-yl)methyl)-2,3-dihydro-1H-inden-5-yl)oxy)methyl)nicotinonitrile] it is 6.30 to 7.00.
The same measure for `Cc1c(COc2cc(OCc3cncc(C#N)c3)c(CN3CC[C@H]3CO)c3c2CCC3)cccc1-c1cnc2[nH]ccc2c1` [Example 72, (S)-5-(((4-((2-(hydroxymethyl)azetidin-1-yl)methyl)-7-((2-methyl-3-(1H-pyrrolo[2,3-b]pyridin-5-yl)benzyl)oxy)-2,3-dihydro-1H-inden-5-yl)oxy)methyl)nicotinonitrile]: 6.30 to 7.00; for `Cc1c(COc2cc(OCc3cncc(C#N)c3)c(CN3CCCCC3(CO)CO)c3c2CCC3)cccc1-c1ccccc1` [Example 22, 5-(((4-((2,2-bis(hydroxymethyl)piperidin-1-yl)methyl)-7-((2-methyl-[1,1′-biphenyl]-3-yl)methoxy)-2,3-dihydro-1H-inden-5-yl)oxy)methyl)nicotinonitrile 2,2,2-trifluoroacetate]: more than 7.00.
The compound `Cc1c(COc2cc(OCc3cscn3)c(CN3CCC3CO)c3c2CCC3)cccc1-c1ccccc1` (centres unmarked) [Example 40, (1-((7-((2-methyl-[1,1′-biphenyl]-3-yl)methoxy)-5-(thiazol-4-ylmethoxy)-2,3-dihydro-1H-inden-4-yl)methyl)azetidin-2-yl)methanol] gave a pIC50 of 6.30 to 7.00.
